Measurements taken from article PMC6238539, “Discovery of a cofactor-independent inhibitor of Mycobacterium tuberculosis InhA” (Life Science Alliance, 2018).
Values after ≈ are worked out from the molar mass of the structure shown. Like-named read-outs stand apart in the source and are kept apart here.

Columns and labels:
in vivo = settings: female; for AUC(0-t): AUClast
M. tuberculosis Erdman [1] = format: in vivo, Mycobacterium tuberculosis; settings: for reduction in M. tuberculosis lung burdens / reduction in M. tuberculosis spleen burdens: 9-d treatment; for Mean ± SEM Log10 CFU: dose escalation study (Table S4), day 22
[2] = mouse plasma
[3] = system: M. tuberculosis Erdman TMCC 107; test: microbe, parasite or virus in culture; format: cell-based; settings: Mycobacterium tuberculosis, read-out: potency (MIC) against M. tuberculosis Erdman TMCC 107
M. tuberculosis Erdman [4] = format: in vivo, Mycobacterium tuberculosis; settings: 100 mg/kg
M. tuberculosis InhA [5] = biological target: T1, M. tuberculosis InhA (Mycobacterium tuberculosis, UniProt P9WGR1); test: InhA in vitro inhibition assay; format: biochemical
T1 sequence (P9WGR1 whole entry, looked up): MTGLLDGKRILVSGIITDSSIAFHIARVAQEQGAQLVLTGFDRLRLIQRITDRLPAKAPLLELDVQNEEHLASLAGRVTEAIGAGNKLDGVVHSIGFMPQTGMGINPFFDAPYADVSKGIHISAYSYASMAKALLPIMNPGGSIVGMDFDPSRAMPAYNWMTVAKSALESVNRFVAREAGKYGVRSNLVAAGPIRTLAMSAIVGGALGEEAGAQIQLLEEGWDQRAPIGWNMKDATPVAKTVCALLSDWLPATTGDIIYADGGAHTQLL

M. tuberculosis H37Rv [6] = test: microbe, parasite or virus in culture; format: cell-based, Mycobacterium tuberculosis; settings: Mycobacterium tuberculosis, H37RV; whole-cell M. tuberculosis
in vitro [7] = format: cell-based; settings: human; read-out: HepG2 cytotoxicity IC50
Protocol: HepG2 human liver cells (ATCC HB 8065) were propagated in DMEM containing either 25 mM glucose or 10 mM galactose plus 10% vol/vol FBS, 1 mM sodium pyruvate, 2 mM Corning glutagro, 100 U/ml penicillin, and 100 μg/ml streptomycin. The cells were seeded in 384-well plates at 1,800 cells per well and incubated in a humidified incubator at 37°C, 5% CO2. Compounds were solubilized in DMSO and assayed using a 10-point threefold serial dilution. Compounds were added 24 h post cell seeding to a final assay concentration of 1% DMSO and highest compound concentration of 100 μM. The cells were incubated for 72 h and viability measured using CellTiter-Glo reagent (Promega) and reading RLU. Growth inhibition curves were fitted using the Levenberg–Marquardt algorithm. The IC50 was defined as the compound concentration that produced 50% of the inhibitory response against HepG2 cells.

in vitro [8] = settings: human
M. tuberculosis H37Rv [9] = test: Kill kinetics under replicating conditions; format: cell-based, Mycobacterium tuberculosis
[10] = for Ratio Plasma AUC0-last / Dose / Ratio Plasma Cmax/Dose: C57Bl/6 mice
[11] = human serum
M. tuberculosis InhA [12] = biological target: T1, M. tuberculosis InhA; test: biochemical; format: binding
[13] = system: intracellular M. tuberculosis in THP-1 cells; test: microbe, parasite or virus in culture; format: cell-based; settings: Mycobacterium tuberculosis
[14] = BALB/c, mouse, po, 10 mg/kg, BALB/c (infected) mice, oral 10 mg/kg QD-3 wk, plasma
[15] = BALB/c, mouse, po, 50 mg/kg, BALB/c (infected) mice, oral 50 mg/kg QD-3 wk, plasma
[16] = C57BL/6, mouse, po, 10 mg/kg, C57Bl/6 mice, oral 10 mg/kg QD-4 days, plasma
[17] = C57BL/6, mouse, po, 10 mg/kg, C57Bl/6 mice, oral 10 mg/kg QD-4 days, lung
[18] = C57BL/6, mouse, po, 25 mg/kg, C57Bl/6 mice, oral 25 mg/kg QD-4 days, plasma
[19] = C57BL/6, mouse, po, 25 mg/kg, C57Bl/6 mice, oral 25 mg/kg QD-4 days, lung
[20] = C57BL/6, mouse, po, 50 mg/kg, C57Bl/6 mice, oral 50 mg/kg QD-4 days, plasma
[21] = C57BL/6, mouse, po, 50 mg/kg, C57Bl/6 mice, oral 50 mg/kg QD-4 days, lung
[22] = CD-1, mouse, iv, 5 mg/kg, CD-1 mice, IV 5 mg/kg, single dose, plasma
[23] = CD-1, mouse, po, 10 mg/kg, CD-1 mice, oral 10 mg/kg, single dose, lung
[24] = CD-1, mouse, po, 10 mg/kg, CD-1 mice, oral 10 mg/kg, single dose, plasma

CCS(=O)(=O)N1N=Cc2ccc(Oc3ccc(C(F)(F)F)cc3/C=N/O)cc2B1O [AN12855]
AUC(0-inf) (in vivo; BALB/c, mouse, po, 10 mg/kg): 29000 ng·h/mL | half-life (in vivo; BALB/c, mouse, po, 10 mg/kg): 3.04 h | AUC(0-t) (in vivo; [14]): 28900 ng·h/mL | Cmax (in vivo; [14]): 8360 ng/mL | Tmax (in vivo; [14]): 0.5 h | AUC(0-inf) (in vivo; BALB/c, mouse, po, 50 mg/kg): 192000 ng·h/mL | half-life (in vivo; BALB/c, mouse, po, 50 mg/kg): 2.4 h | AUC(0-t) (in vivo; [15]): 192000 ng·h/mL | Cmax (in vivo; [15]): 61600 ng/mL | Tmax (in vivo; [15]): 0.5 h | AUC(0-inf) (in vivo; C57BL/6, mouse, po, 10 mg/kg): 19700 ng·h/mL | half-life (in vivo; C57BL/6, mouse, po, 10 mg/kg): 2.5 h | AUC(0-t) (in vivo; [16]): 17600 ng·h/mL | Cmax (in vivo; [17]): 584 ng/mL | Cmax (in vivo; [16]): 5790 ng/mL | Kp (in vivo; C57BL/6, mouse, po, 10 mg/kg, Ratio (Lung / Plasma) @ 5 hr, C57Bl/6 mice, oral 10 mg/kg QD-4 days): 0.39 | Kp (in vivo; C57BL/6, mouse, po, 10 mg/kg, Ratio (Lung / Plasma) @ 8 hr, C57Bl/6 mice, oral 10 mg/kg QD-4 days): 0.51 | Tmax (in vivo; [17]): 5 h | Tmax (in vivo; [16]): 0.5 h | AUC(0-inf) (in vivo; C57BL/6, mouse, po, 25 mg/kg): 59000 ng·h/mL | half-life (in vivo; C57BL/6, mouse, po, 25 mg/kg): 3.52 h | AUC(0-t) (in vivo; [18]): 46800 ng·h/mL | Cmax (in vivo; [19]): 1900 ng/mL | Cmax (in vivo; [18]): 12600 ng/mL | Kp (in vivo; C57BL/6, mouse, po, 25 mg/kg, Ratio (Lung / Plasma) @ 5 hr, C57Bl/6 mice, oral 25 mg/kg QD-4 days): 0.48 | Kp (in vivo; C57BL/6, mouse, po, 25 mg/kg, Ratio (Lung / Plasma) @ 8 hr, C57Bl/6 mice, oral 25 mg/kg QD-4 days): 0.49 | Tmax (in vivo; [19]): 5 h | Tmax (in vivo; [18]): 0.5 h | AUC(0-inf) (in vivo; C57BL/6, mouse, po, 50 mg/kg): 109000 ng·h/mL | half-life (in vivo; C57BL/6, mouse, po, 50 mg/kg): 3.76 h | AUC(0-t) (in vivo; [20]): 82400 ng·h/mL | Cmax (in vivo; [21]): 3500 ng/mL | Cmax (in vivo; [20]): 14900 ng/mL | Kp (in vivo; C57BL/6, mouse, po, 50 mg/kg, Ratio (Lung / Plasma) @ 5 hr, C57Bl/6 mice, oral 50 mg/kg QD-4 days): 0.36 | Kp (in vivo; C57BL/6, mouse, po, 50 mg/kg, Ratio (Lung / Plasma) @ 8 hr, C57Bl/6 mice, oral 50 mg/kg QD-4 days): 0.47 | Tmax (in vivo; [21]): 5 h | Tmax (in vivo; [20]): 0.5 h | half-life (in vivo; CD-1, mouse): 3.5 h | AUC(0-inf) (in vivo; CD-1, mouse, iv, 5 mg/kg): 14400 ng·h/mL | MRT inf (in vivo; CD-1, mouse, iv, 5 mg/kg): 3.64 h | Vd (in vivo; CD-1, mouse, iv, 5 mg/kg): 1.27 L/kg | clearance (in vivo; CD-1, mouse, iv, 5 mg/kg): 5.8 mL/min/kg | half-life (in vivo; CD-1, mouse, iv, 5 mg/kg): 3.46 h | AUC(0-t) (in vivo; [22]): 14300 ng·h/mL | Cmax (in vivo; [22]): 6320 ng/mL | AUC(0-inf) (in vivo; CD-1, mouse, po, 10 mg/kg): 15500 ng·h/mL | bioavailability (in vivo; CD-1, mouse, po, 10 mg/kg): 53% | half-life (in vivo; CD-1, mouse, po, 10 mg/kg): 3.27 h | AUC(0-t) (in vivo; [23]): 10400 ng·h/mL | AUC(0-t) (in vivo; [24]): 15400 ng·h/mL | Cmax (in vivo; [23]): 1020 ng/mL | Cmax (in vivo; [24]): 1740 ng/mL | Tmax (in vivo; [23]): 4 h | Tmax (in vivo; [24]): 0.5 h | reduction in M. tuberculosis lung burdens (M. tuberculosis Erdman [1]; 10 mg/kg): 2.3 log10 | reduction in M. tuberculosis spleen burdens (M. tuberculosis Erdman [1]; 10 mg/kg): 2.1 log10 | reduction in M. tuberculosis lung burdens (M. tuberculosis Erdman [1]; 25 mg/kg): 2.7 log10 | reduction in M. tuberculosis spleen burdens (M. tuberculosis Erdman [1]; 25 mg/kg): 3.2 log10 | reduction in M. tuberculosis lung burdens (M. tuberculosis Erdman [1]; 50 mg/kg): 3.7 log10 | reduction in M. tuberculosis spleen burdens (M. tuberculosis Erdman [1]; 50 mg/kg): 3.6 log10 | Mean ± SEM Log10 CFU (M. tuberculosis Erdman [1]; lung, 50 mg/kg): 5.8 ± 0.05 Log10 CFU | Mean ± SEM Log10 CFU (M. tuberculosis Erdman [1]; lung, 100 mg/kg): 5.0 ± 0.13 Log10 CFU | Mean ± SEM Log10 CFU (M. tuberculosis Erdman [1]; lung, 200 mg/kg): 5.6 ± 0.06 Log10 CFU | Mean ± SEM Log10 CFU (M. tuberculosis Erdman [1]; organ Lung, 50 mg/kg): 2.5 ± 0.24 Log10 CFU | Mean ± SEM Log10 CFU (M. tuberculosis Erdman [1]; organ Lung, 100 mg/kg): 2.5 ± 0.05 Log10 CFU | Mean ± SEM Log10 CFU (M. tuberculosis Erdman [1]; organ Lung, 200 mg/kg): 3.0 ± 0.10 Log10 CFU | protein bound [2]: 98.5% | MIC ([3]; with 4% human serum albumin): 2.3 µM (≈ 1.01 µg/mL) | MIC ([3]; without human serum albumin): 0.28 µM (≈ 0.124 µg/mL) | reduction in lung burdens (M. tuberculosis Erdman [4]; 2 weeks of treatment): 0.47 log10 CFU | reduction in lung burdens (M. tuberculosis Erdman [4]; 4 weeks of treatment): 0.81 log10 CFU | reduction in lung burdens (M. tuberculosis Erdman [4]; 8 weeks of treatment): 1.73 log10 CFU | reduction in spleens (M. tuberculosis Erdman [4]; 8 weeks of treatment): more than three log10 reductions | IC50 (M. tuberculosis InhA [5]): 30 nM | IC90 (M. tuberculosis H37Rv [6]): 90 ± 50 nM | IC50 (in vitro [7]): > 100000 nM | IC50 (in vitro [8]): > 50000 nM | bactericidal activity (M. tuberculosis H37Rv [9]): concentration-dependent bactericidal activity | time to reach the limit of detection (M. tuberculosis H37Rv [9]; replicating conditions, 10× the IC90): 7 days | Ratio Plasma AUC0-last / Dose ([10]; oral 10 mg/kg QD-4 days): 1.8 | Ratio Plasma Cmax/Dose ([10]; oral 10 mg/kg QD-4 days): 0.58 | Ratio Plasma AUC0-last / Dose ([10]; oral 25 mg/kg QD-4 days): 1.9 | Ratio Plasma Cmax/Dose ([10]; oral 25 mg/kg QD-4 days): 0.5 | Ratio Plasma AUC0-last / Dose ([10]; oral 50 mg/kg QD-4 days): 1.6 | Ratio Plasma Cmax/Dose ([10]; oral 50 mg/kg QD-4 days): 0.3 | total lung exposure lower than plasma AUC ([10]; CD-1 mice, oral 10 mg/kg): 33% | protein bound [11]: 88% | Kd (M. tuberculosis InhA [12]; cofactor: None): 77 nM | N (stoichiometry of binding) (M. tuberculosis InhA [12]; cofactor: None): 0.58 ± 0.014 | ∆H (M. tuberculosis InhA [12]; cofactor: None): −17,740 ± 607 cal/mol | ∆S (M. tuberculosis InhA [12]; cofactor: None): −27 cal/mol/deg | binding to InhA (M. tuberculosis InhA [12]; in the presence of NADH): unable to bind | IC50 [13]: 21 ± 3 nM | IC90 [13]: 40 ± 10 nM
